In patent US11242350B2, “Spirocyclic ROR-gamma modulators” (Escalier Biosciences B.V., priority 2018, dated 2022):

Biological target: RORγt (Homo sapiens (Human), UniProt P51449)
Assay: Gal4 ligand binding assay (RORγt Gal fusion luciferase reporter assay in HEK293T cells)
Type: cell-based
Settings: RORγt inverse agonists in RORγt Gal fusion assay
Summary of the method: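 Stable HEK293T line expressing the receptor fused to the Gal4 DBD, with a Gal4 UAS-driven luciferase; constitutively active, so agonism and inverse agonism both register. 10-point 1:3 titrations, 60 μM to 3 nM as prepared in media (added as 2×), 0.2% final DMSO; 24 h at 37 °C. Luminescence normalised to vehicle-only wells.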

RORγt, sequence (P51449 269-508): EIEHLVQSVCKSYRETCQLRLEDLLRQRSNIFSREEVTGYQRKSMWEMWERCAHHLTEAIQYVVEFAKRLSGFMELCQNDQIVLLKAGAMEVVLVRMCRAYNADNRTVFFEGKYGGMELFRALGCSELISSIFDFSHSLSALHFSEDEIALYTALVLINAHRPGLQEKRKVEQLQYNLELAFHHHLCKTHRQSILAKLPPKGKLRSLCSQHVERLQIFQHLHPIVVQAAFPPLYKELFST

SMILES	IC50
CCc1cc(CN2CC3(C2)CN(S(C)(=O)=O)C3)c(F)cc1-c1ccc(C(O)(C(F)(F)F)C(F)(F)F)cc1F [Example 82, 2-(2′-ethyl-2,5′-difluoro-4′-((6-(methylsulfonyl)-2,6-diazaspiro[3.3]heptan-2-yl)methyl)-[1,1′-biphenyl]-4-yl)-1,1,1,3,3,3-hexafluoropropan-2-ol]	< 50 nM
CS(=O)(=O)N1CC2(CN(Cc3cc(F)c(-c4ccc(C(O)(C(F)(F)F)C(F)(F)F)cc4)c(C4CC4)c3F)C2)C1 [Example 88, 2-(2′-cyclopropyl-3′,6′-difluoro-4′-((6-(methylsulfonyl)-2,6-diazaspiro[3.3]heptan-2-yl)methyl)-[1,1′-biphenyl]-4-yl)-1,1,1,3,3,3-hexafluoropropan-2-ol]	< 50 nM
CS(=O)(=O)N1CC2(CN(Cc3cc(F)c(-c4ccc(C(O)(C(F)(F)F)C(F)(F)F)cc4Cl)c(C4CC4)c3F)C2)C1 [Example 92, 2-(2-chloro-2′-cyclopropyl-3′,6′-difluoro-4′-((6-(methylsulfonyl)-2,6-diazaspiro[3.3]heptan-2-yl)methyl)-[1,1′-biphenyl]-4-yl)-1,1,1,3,3,3-hexafluoropropan-2-ol]	< 50 nM
Cc1cc(CN2CC3(CN(Cc4ccncc4)C3)C2)ccc1-c1ccc(C(O)(C(F)(F)F)C(F)(F)F)cc1 [Example 51, 1,1,1,3,3,3-hexafluoro-2-(2′-methyl-4′-((6-(pyridin-4-ylmethyl)-2,6-diazaspiro[3.3]heptan-2-yl)methyl)-[1,1′-biphenyl]-4-yl)propan-2-ol]	> 250 nM
CCc1cc(CN2CC3(CCN(C(=O)OC(C)(C)C)C3)C2)ccc1-c1ccc(C(O)(C(F)(F)F)C(F)(F)F)cc1 [Example 38, tert-butyl 2-((2-ethyl-4′-(1,1,1,3,3,3-hexafluoro-2-hydroxypropan-2-yl)-[1,1′-biphenyl]-4-yl)methyl)-2,6-diazaspiro[3.4]octane-6-carboxylate]	50 to 250 nM
CC(C)c1c(F)c(CN2CC3(C2)CN(S(C)(=O)=O)C3)cc(F)c1-c1ccc(C(O)(C(F)(F)F)C(F)(F)F)cc1Cl [Example 87, 2-(2-chloro-3′,6′-difluoro-2′-isopropyl-4′-((6-(methylsulfonyl)-2,6-diazaspiro[3.3]heptan-2-yl)methyl)-[1,1′-biphenyl]-4-yl)-1,1,1,3,3,3-hexafluoropropan-2-ol]	< 50 nM
Cc1cc(C(O)(C(F)(F)F)C(F)(F)F)ccc1-c1ccc(CN2CCC3(C2)CS(=O)(=O)C3)cc1C(C)C [Example 11, 6-((4′-(1,1,1,3,3,3-hexafluoro-2-hydroxypropan-2-yl)-2-isopropyl-2′-methyl-[1,1′-biphenyl]-4-yl)methyl)-2-thia-6-azaspiro[3.4]octane 2,2-dioxide]	< 50 nM

Continued, values first:

IC50	SMILES
< 50 nM	CS(=O)(=O)N1CC2(CN(Cc3ccc(-c4ccc(C(O)(C(F)(F)F)C(F)(F)F)cc4)c(C4CC4)c3)C2)C1 [Example 42, 2-(2′-cyclopropyl-4′-((6-(methylsulfonyl)-2,6-diazaspiro[3.3]heptan-2-yl)methyl)-[1,1′-biphenyl]-4-yl)-1,1,1,3,3,3-hexafluoropropan-2-ol]
50 to 250 nM	CCc1cc(CN2CC3(C2)CN(C(=O)OC)C3)ccc1-c1ccc(C(O)(C(F)(F)F)C(F)(F)F)cc1 [Example 40, methyl 6-((2-ethyl-4′-(1,1,1,3,3,3-hexafluoro-2-hydroxypropan-2-yl)-[1,1′-biphenyl]-4-yl)methyl)-2,6-diazaspiro[3.3]heptane-2-carboxylate]
50 to 250 nM	CCc1cc(CN2CCC3(CCNC3=O)C2)ccc1-c1ccc(C(O)(C(F)(F)F)C(F)(F)F)cc1 (stereo not shown) [Example 53, 7-((2-ethyl-4′-(1,1,1,3,3,3-hexafluoro-2-hydroxypropan-2-yl)-[1,1′-biphenyl]-4-yl)methyl)-2,7-diazaspiro[4.4]nonan-1-one]
> 250 nM	CCc1cc(CN2CC3(CSC3)C2)ccc1-c1ccc(C(O)(C(F)(F)F)C(F)(F)F)cc1 [Example 28, 2-(4′-((2-thia-6-azaspiro[3.3]heptan-6-yl)methyl)-2′-ethyl-[1,1′-biphenyl]-4-yl)-1,1,1,3,3,3-hexafluoropropan-2-ol]
50 to 250 nM	CCc1cc(CN2CC3(C2)CN(S(=O)(=O)C2CC2)C3)ccc1-c1ccc(C(O)(C(F)(F)F)C(F)(F)F)cc1 [Example 41, 2-(4′-((6-(cyclopropylsulfonyl)-2,6-diazaspiro[3.3]heptan-2-yl)methyl)-2′-ethyl-[1,1′-biphenyl]-4-yl)-1,1,1,3,3,3-hexafluoropropan-2-ol]
50 to 250 nM	CCc1cc(CN2CC3(C2)CN(C(=O)OC(C)(C)C)C3)ccc1-c1ccc(C(O)(C(F)(F)F)C(F)(F)F)cc1 [Example 1, tert-butyl 6-((2-ethyl-4′-(1,1,1,3,3,3-hexafluoro-2-hydroxypropan-2-yl)-[1,1′-biphenyl]-4-yl)methyl)-2,6-diazaspiro[3.3]heptane-2-carboxylate]
< 50 nM	CCc1cc(CN2CCC(S(C)(=O)=O)CC2)ccc1-c1ccc(C(O)(C(F)(F)F)C(F)(F)F)cc1 [Example 10, 2-(2′-ethyl-4′-((4-(methylsulfonyl)piperidin-1-yl)methyl)-[1,1′-biphenyl]-4-yl)-1,1,1,3,3,3-hexafluoropropan-2-ol]
50 to 250 nM	CCc1cc(CN2CCC3(CNC(=O)C3)C2)ccc1-c1ccc(C(O)(C(F)(F)F)C(F)(F)F)cc1 (stereo not shown) [Example 54, 7-((2-ethyl-4′-(1,1,1,3,3,3-hexafluoro-2-hydroxypropan-2-yl)-[1,1′-biphenyl]-4-yl)methyl)-2,7-diazaspiro[4.4]nonan-3-one]
50 to 250 nM	CCc1cc(CN2CC3(CCN(S(C)(=O)=O)C3)C2)ccc1-c1ccc(C(O)(C(F)(F)F)C(F)(F)F)cc1 [Example 6, 2-(2′-ethyl-4′-((6-(methylsulfonyl)-2,6-diazaspiro[3.4]octan-2-yl)methyl)-[1,1′-biphenyl]-4-yl)-1,1,1,3,3,3-hexafluoropropan-2-ol]
